Laboratory results reported in publication PMC11350758, “Development of Xanthoangelol-Derived Compounds with Membrane-Disrupting Effects against Gram-Positive Bacteria” (Antibiotics, 2024).
In brackets after ≈: the same amount, converted by molar mass.

Tests used:
[1] = system: Acinetobacter baumannii ATCC19606; assay: MIC, broth microdilution; type: cell-based; settings: Acinetobacter baumannii ATCC19606; for MIC: read-out: MIC A. b. 19606
Protocol: (§1) All target derivatives were assessed for their in vitro antibacterial activities using a broth microdilution assay to test their minimum inhibitory concentrations (MICs) against six Gram-positive strains (S. aureus ATCC31007, S. aureus ATCC25923, S. aureus ATCC43300, E. faecalis ATCC29212, B. subtilis ATCC9372, and S. epidermidis ATCC12228) and four Gram-negative strains (A. baumannii ATCC19606, K. pneumonia ATCC10031, E. coli ATCC25922, and P. aeruginosa ATCC27853). These compounds were also evaluated for their hemolytic activities and membrane selectivity by determining their HC50 (the concentration required to lyse 50% of red blood cells) and SI (HC50/MICs) values, respectively, and vancomycin was used as the positive drug.
(§2) MICs of the derivatives were determined by the micro broth dilution method according to the American Clinical and Laboratory Standards Institute (CLSI) standards. Briefly, 2-fold serial dilutions of target compounds were prepared in 96-well plates containing TSB broth. An equal volume of bacterial suspension (10^6 CFU/mL) was then pipetted into each well, and the mixture was incubated at 37 °C for 24 h. […] All biological experiments were repeated three times.

[2] = system: Bacillus subtilis ATCC9372, penicillin-susceptible strain; assay: MIC, broth microdilution; type: cell-based; settings: Bacillus subtilis ATCC9372; for MIC: read-out: MIC B. s. 9372
Protocol: as §1, §2

[3] = system: Enterococcus faecalis ATCC29212, vancomycin-susceptible strain; assay: MIC, broth microdilution; type: cell-based; settings: Enterococcus faecalis ATCC29212; for MIC: read-out: MIC E. f. 29212
Protocol: as §1, §2

[4] = system: Escherichia coli ATCC25922, penicillin-susceptible strain; assay: MIC, broth microdilution; type: cell-based; settings: Escherichia coli ATCC25922; for MIC: read-out: MIC E. c. 25922
Protocol: as §1, §2

[5] = system: Klebsiella pneumonia ATCC10031; assay: MIC, broth microdilution; type: cell-based; settings: Klebsiella pneumonia ATCC10031; for MIC: Klebsiella pneumoniae, read-out: MIC K. p. 10031
Protocol: as §1, §2

[6] = system: Pseudomonas aeruginosa ATCC27853, penicillin-susceptible strain; assay: MIC, broth microdilution; type: cell-based; settings: Pseudomonas aeruginosa ATCC27853; for MIC: read-out: MIC P. a. 27853
Protocol: as §1, §2

[7] = system: Staphylococcus aureus ATCC25923, erythromycin-susceptible strain; assay: MIC, broth microdilution; type: cell-based; settings: Staphylococcus aureus ATCC25923; for MIC: read-out: MIC S. a. 25923
Protocol: as §1, §2

[8] = system: Staphylococcus aureus ATCC31007, penicillin-resistant strain; assay: MIC, broth microdilution; type: cell-based; settings: Staphylococcus aureus ATCC31007; for MIC: read-out: MIC S. a. 31007
Protocol: as §1, §2

[9] = system: Staphylococcus epidermidis ATCC12228, erythromycin-susceptible strain; assay: MIC, broth microdilution; type: cell-based; settings: Staphylococcus epidermidis ATCC12228; for MIC: read-out: MIC S. e. 12228
Protocol: as §1, §2

[10] = system: Staphylococcus aureus ATCC43300, methicillin-resistant strain; assay: microbe, parasite or virus in culture; type: cell-based; settings: Staphylococcus aureus ATCC43300 (MRSA); for MIC: ATCC 43300 / MRSA, read-out: MIC S. a 43300
Protocol: as §1, §2

[11] = system: Enterococcus faecalis ATCC51299, vancomycin-resistant strain; assay: MIC, broth microdilution; type: cell-based; settings: Enterococcus faecalis ATCC51299, vancomycin-resistant; for MIC: read-out: MIC E. f. 51299
Protocol: as §2

[12] = system: Enterococcus faecium ATCC51559, vancomycin-resistant strain; assay: MIC, broth microdilution; type: cell-based; settings: Enterococcus faecium ATCC51559, vancomycin-resistant; for MIC: read-out: MIC E. f. 51559
Protocol: as §2

red blood cells = assay: Hemolysis assay; type: cell-based, Sheep; settings: concentration required to lyse 50% of red blood cells; 37 °C, 1 h
Protocol: as §1
To further detect the hemolytic toxicity and therapeutic potential of these derivatives, we proceeded to examine the hemolytic activities and membrane selectivity of these derivatives. The HC50 value was defined as the concentration needed for a compound to lyse 50% of red blood cells, and it is often used to evaluate the hemolytic toxicity to eukaryotic cells. […] The selectivity index (SI) was calculated by HC50/MICs of S. aureus ATCC43300 and was used to assess the potency and safety of the compounds. […] Thus, compound 9h was selected as a representative molecule for the in-depth in vitro and in vivo studies.
Sheep blood was used to isolate red blood cells (RBCs), which were then resuspended in 1× PBS (5%). The compounds were dissolved in PBS to give an initial concentration of 5.12 mg/mL, compound solution (100 μL) was added to the first well of a 96-well plate, two-fold serial dilutions of compounds were prepared in 96-well plates, and then 150 μL of 5% RBC suspension was added to each well. This was followed by incubation at 37 °C for 1 h. After incubation, the plate was centrifuged (3500 rpm, 5 min), and 100 μL of supernatant solution from each well was carefully pipetted into a new plate. The absorbance values were measured at 540 nm. Erythrocyte hemolysis rate = (Absorbancecompound – Absorbance negative control)/(Absorbance1% Triton X-100 − Absorbance negative control) × 100%. All biological experiments were repeated three times.

S. aureus = assay: MIC, summary over the S. aureus strains tested; type: cell-based; settings: Staphylococcus aureus; over the three S. aureus strains tested; read-out: MICs against S. aureus
Protocol: as §1, §2

Compound	MIC [1]	MIC [2]	MIC [3]	MIC [4]	MIC [5]	MIC [6]	MIC [7]	MIC [8]	MIC [9]	MIC [10]	MIC [11]	MIC [12]	HC50 (red blood cells)	also measured
CC[N+](CC)(CC)CCCOc1c(C(C)=O)ccc2c1C=CC(C)(CCC=C(C)C)O2 (centres unmarked) [Compound 5a, 3-((6-Acetyl-2-methyl-2-(4-methylpent-3-en-1-yl)-2H-chromen-5-yl)oxy)-N,N,N-triethylpropan-1-aminium]	> 128 µg/mL	64 µg/mL	64 µg/mL	> 128 µg/mL	128 µg/mL	> 128 µg/mL	8 µg/mL	128 µg/mL	64 µg/mL	64 µg/mL	16 µg/mL	16 µg/mL	571.5 µg/mL	MIC (S. aureus): 8 to 128 µg/mL
CCNCCCOc1c(C(C)=O)ccc2c1C=CC(C)(CCC=C(C)C)O2 (centres unmarked) [Compound 5b, 1-(5-(3-(Ethylamino)propoxy)-2-methyl-2-(4-methylpent-3-en-1-yl)-2H-chromen-6-yl)ethan-1-one]	16 µg/mL (≈ 43.1 µM)	8 µg/mL (≈ 21.5 µM)	8 µg/mL (≈ 21.5 µM)	32 µg/mL (≈ 86.1 µM)	16 µg/mL (≈ 43.1 µM)	> 128 µg/mL	16 µg/mL (≈ 43.1 µM)	16 µg/mL (≈ 43.1 µM)	8 µg/mL (≈ 21.5 µM)	16 µg/mL (≈ 43.1 µM)	32 µg/mL (≈ 86.1 µM)	32 µg/mL (≈ 86.1 µM)	118.4 µg/mL	
CCN(CC)CCCOc1c(C(C)=O)ccc2c1C=CC(C)(CCC=C(C)C)O2 (centres unmarked) [Compound 5c, 1-(5-(3-(Diethylamino)propoxy)-2-methyl-2-(4-methylpent-3-en-1-yl)-2H-chromen-6-yl)ethan-1-one]	32 µg/mL (≈ 80.1 µM)	16 µg/mL (≈ 40 µM)	32 µg/mL (≈ 80.1 µM)	128 µg/mL (≈ 320 µM)	16 µg/mL (≈ 40 µM)	32 µg/mL (≈ 80.1 µM)	32 µg/mL (≈ 80.1 µM)	32 µg/mL (≈ 80.1 µM)	16 µg/mL (≈ 40 µM)	32 µg/mL (≈ 80.1 µM)	128 µg/mL (≈ 320 µM)	64 µg/mL (≈ 160 µM)	324.1 µg/mL	MIC (S. aureus): 8 to 128 µg/mL (≈ 20 to 320 µM)
CC(=O)c1ccc2c(c1OCCCN1CC(C)OC(C)C1)C=CC(C)(CCC=C(C)C)O2 (centres unmarked) [Compound 5d, 1-(5-(3-(2,6-Dimethylmorpholino)propoxy)-2-methyl-2-(4-methylpent-3-en-1-yl)-2H-chromen-6-yl)ethan-1-one]	128 µg/mL (≈ 290 µM)	> 128 µg/mL	> 128 µg/mL	> 128 µg/mL	128 µg/mL (≈ 290 µM)	> 128 µg/mL	> 128 µg/mL	> 128 µg/mL	> 128 µg/mL	> 128 µg/mL	> 128 µg/mL	> 128 µg/mL	746.5 µg/mL	
CC(=O)c1ccc2c(c1OCCCN1CCN(C(C)=O)CC1)C=CC(C)(CCC=C(C)C)O2 (centres unmarked) [Compound 5e, 1-(4-(3-((6-Acetyl-2-methyl-2-(4-methylpent-3-en-1-yl)-2H-chromen-5-yl)oxy)propyl)piperazin-1-yl)ethan-1-one]	128 µg/mL (≈ 282 µM)	64 µg/mL (≈ 141 µM)	32 µg/mL (≈ 70.4 µM)	> 128 µg/mL	> 128 µg/mL	> 128 µg/mL	128 µg/mL (≈ 282 µM)	128 µg/mL (≈ 282 µM)	64 µg/mL (≈ 141 µM)	128 µg/mL (≈ 282 µM)	128 µg/mL (≈ 282 µM)	128 µg/mL (≈ 282 µM)	62.3 µg/mL	
CC(=O)c1ccc2c(c1OCCCNCCN(C)C)C=CC(C)(CCC=C(C)C)O2 (centres unmarked) [Compound 5f, 1-(5-(3-((2-(Dimethylamino)ethyl)amino)propoxy)-2-methyl-2-(4-methylpent-3-en-1-yl)-2H-chromen-6-yl)ethan-1-one]	8 µg/mL (≈ 19.3 µM)	8 µg/mL (≈ 19.3 µM)	8 µg/mL (≈ 19.3 µM)	8 µg/mL (≈ 19.3 µM)	8 µg/mL (≈ 19.3 µM)	32 µg/mL (≈ 77.2 µM)	16 µg/mL (≈ 38.6 µM)	16 µg/mL (≈ 38.6 µM)	8 µg/mL (≈ 19.3 µM)	8 µg/mL (≈ 19.3 µM)	32 µg/mL (≈ 77.2 µM)	32 µg/mL (≈ 77.2 µM)	127.7 µg/mL	
CC(=O)c1c(OCCC[n+]2ccccc2)c2c(c3c1OC(C)(CCC=C(C)C)C=C3)OC(C)(CCC=C(C)C)C=C2 (centres unmarked) [Compound 9b, 1-(3-((6-Acetyl-2,8-dimethyl-2,8-bis(4-methylpent-3-en-1-yl)-2H,8H-pyrano[2,3-f]chromen-5-yl)oxy)propyl)pyridin-1-ium]	32 µg/mL	2 µg/mL	2 µg/mL	128 µg/mL	32 µg/mL	> 128 µg/mL	2 µg/mL	4 µg/mL	32 µg/mL	1 µg/mL	4 µg/mL	4 µg/mL	26.6 µg/mL	
CNCCN(C)CCCOc1c2c(c3c(c1C(C)=O)OC(C)(CCC=C(C)C)C=C3)OC(C)(CCC=C(C)C)C=C2 (centres unmarked) [Compound 9f, 1-(2,8-Dimethyl-5-(3-(methyl(2-(methylamino)ethyl)amino)propoxy)-2,8-bis(4-methylpent-3-en-1-yl)-2H,8H-pyrano[2,3-f]chromen-6-yl)ethan-1-one]	64 µg/mL (≈ 113 µM)	8 µg/mL (≈ 14.2 µM)	8 µg/mL (≈ 14.2 µM)	128 µg/mL (≈ 227 µM)	16 µg/mL (≈ 28.3 µM)	> 128 µg/mL	4 µg/mL (≈ 7.08 µM)	4 µg/mL (≈ 7.08 µM)	8 µg/mL (≈ 14.2 µM)	4 µg/mL (≈ 7.08 µM)	4 µg/mL (≈ 7.08 µM)	8 µg/mL (≈ 14.2 µM)	40.3 µg/mL	
CCN(CC)CCCNCCCOc1c2c(c3c(c1C(C)=O)OC(C)(CCC=C(C)C)C=C3)OC(C)(CCC=C(C)C)C=C2 (centres unmarked) [Compound 9g, 1-(5-(3-((3-(Diethylamino)propyl)amino)propoxy)-2,8-dimethyl-2,8-bis(4-methylpent-3-en-1-yl)-2H,8H-pyrano[2,3-f]chromen-6-yl)ethan-1-one]	4 µg/mL (≈ 6.59 µM)	2 µg/mL (≈ 3.3 µM)	1 µg/mL (≈ 1.65 µM)	4 µg/mL (≈ 6.59 µM)	8 µg/mL (≈ 13.2 µM)	32 µg/mL (≈ 52.7 µM)	2 µg/mL (≈ 3.3 µM)	4 µg/mL (≈ 6.59 µM)	1 µg/mL (≈ 1.65 µM)	4 µg/mL (≈ 6.59 µM)	32 µg/mL (≈ 52.7 µM)	32 µg/mL (≈ 52.7 µM)	34.9 µg/mL	
colistin [Cos, reference compound]														MIC A. b. 19606 [1]: 1 µg/mL; MIC B. s. 9372 [2]: 16 µg/mL; MIC E. f. 29212 [3]: 128 µg/mL; MIC E. c. 25922 [4]: 0.5 µg/mL; MIC K. p. 10031 [5]: 1 µg/mL; MIC P. a. 27853 [6]: 0.5 µg/mL; MIC S. a. 25923 [7]: 128 µg/mL; MIC S. a. 31007 [8]: 128 µg/mL; MIC S. e. 12228 [9]: 64 µg/mL; MIC S. a 43300 [10]: 128 µg/mL; MIC E. f. 51299 [11]: >128 µg/mL; MIC E. f. 51559 [12]: >128 µg/mL
